US12435061B2 (priority 2020, dated 2025)
pIC50: −log10 of the molar value. In brackets after ≈: the same amount, converted by molar mass. Like-named read-outs stand apart in the source and are kept apart here.

What was measured:
hTRPV3 [1] = target: T1, hTRPV3 (Homo sapiens (Human), UniProt Q8NET8); test: Whole-cell patch clamp, hTRPV3 Phase 1 / Phase 2 currents; type: cell-based; conditions: for pIC50: inward, whole-cell patch clamp
Method in brief: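 Whole-cell recordings on induced TRPV3 cells replated on coverslips, held at −40 mV with 400 ms ramps from −120 to +100 mV every 5 s; currents read at −80 and +80 mV. Ringer's external solution; current activated by heating to ≥28 °C or 20 μM 2-APB.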

human hERG channels = human hERG channels (Homo sapiens (Human), UniProt Q12809); test: hERG assay (patch clamp, CHO cells); type: cell-based
Chain of human hERG channels (Q12809 whole entry): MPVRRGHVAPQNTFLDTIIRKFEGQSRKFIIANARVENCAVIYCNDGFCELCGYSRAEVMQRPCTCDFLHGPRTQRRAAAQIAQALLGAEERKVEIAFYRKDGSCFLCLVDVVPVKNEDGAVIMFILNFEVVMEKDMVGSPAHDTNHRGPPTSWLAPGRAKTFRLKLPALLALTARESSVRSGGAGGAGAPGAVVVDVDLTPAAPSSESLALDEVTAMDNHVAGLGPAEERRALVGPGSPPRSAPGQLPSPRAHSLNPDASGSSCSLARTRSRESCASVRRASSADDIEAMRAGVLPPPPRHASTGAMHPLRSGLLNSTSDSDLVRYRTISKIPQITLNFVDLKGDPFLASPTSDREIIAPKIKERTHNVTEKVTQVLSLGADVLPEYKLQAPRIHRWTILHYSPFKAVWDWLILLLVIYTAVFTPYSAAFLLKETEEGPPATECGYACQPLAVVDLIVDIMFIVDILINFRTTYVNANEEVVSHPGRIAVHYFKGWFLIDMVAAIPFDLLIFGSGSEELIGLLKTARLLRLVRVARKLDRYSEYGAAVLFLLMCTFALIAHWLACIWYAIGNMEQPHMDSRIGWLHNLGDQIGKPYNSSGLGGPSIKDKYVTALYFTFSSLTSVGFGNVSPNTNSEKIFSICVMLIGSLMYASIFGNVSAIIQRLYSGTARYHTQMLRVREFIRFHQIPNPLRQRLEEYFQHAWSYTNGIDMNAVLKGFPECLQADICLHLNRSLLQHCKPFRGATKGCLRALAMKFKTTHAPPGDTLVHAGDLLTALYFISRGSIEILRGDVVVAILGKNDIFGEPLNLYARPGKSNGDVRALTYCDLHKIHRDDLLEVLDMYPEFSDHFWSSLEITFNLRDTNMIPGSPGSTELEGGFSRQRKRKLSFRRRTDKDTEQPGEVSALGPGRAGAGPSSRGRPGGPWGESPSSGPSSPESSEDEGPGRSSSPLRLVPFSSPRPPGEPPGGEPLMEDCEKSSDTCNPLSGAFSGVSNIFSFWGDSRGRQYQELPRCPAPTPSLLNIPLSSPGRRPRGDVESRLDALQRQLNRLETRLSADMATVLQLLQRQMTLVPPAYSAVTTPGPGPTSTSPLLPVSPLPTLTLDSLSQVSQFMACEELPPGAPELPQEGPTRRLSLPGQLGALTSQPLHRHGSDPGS
Experimental: hERG assay: Briefly, cells from a stable CHO cell line expressing human hERG channels were plated onto glass coverslips and used in patch clamp assays on the same day. After seal formation and break-in to whole-cell configuration, voltage steps were applied as follows: from the holding potential of −90 mV, a 2 second long step to +40 mV was applied, followed by a 1.5 second step to −50 mV. These steps were applied once every 5 seconds. The hERG current was measured at the peak of the outward tail current at −50 mV. The pipette solution was potassium aspartate based and the external solution was normal Ringer's.
All currents were recorded in whole-cell configuration using an Axopatch 200B controlled by pClamp 10 software (Molecular Devices). In each cell, when the current stabilized, the compound was perfused locally onto the cell. Two to three concentrations of the test compound were applied to each cell. At the end of compound testing, 10 μM verapamil was applied to completely block hERG currents and assess leak current.
Data were analyzed by computing the degree of current block after compound addition compared with the unblocked current amplitude. The unblocked current was predicted from the interpolation between the current amplitude prior to compound addition and after compound washout. The resulting percent block at each concentration was used to make a concentration-response plot and fitted to the Hill equation: percent block=minimum block+(maximum block-minimum block)/(1+10^(Hill slope*(log IC50−concentration))).

[2] = Aqueous solubility assay in Normal Ringer Solution; conditions: Normal Ringer Solution; for solubility at 40 min: saline or isotonic, kinetic from dmso stock
Experimental: Following vortex and incubation for a sufficient time (e.g. 40 minutes at room temperature), solutions were filtered, quenched with acetonitrile, and analyzed by Liquid Chromotography. Solubility Limits were determined by comparison to a standard curve.

[3] = Metabolic Stability assay, human liver microsomes; type: in vitro ADME; conditions: read-out: LM T1/2 (min) human
Experimental: Metabolic Stability assay: The metabolic stability was determined by adding compound dissolved in DMSO to human or rat, liver microsomes. Briefly, assays were run with a starting concentration of 1 μM test article. The reaction was started by addition of NADPH regeneration components at 37° C. at which time an aliquot was immediately quenched in ice-cold acetonitrile/MeOH/H2O solution. Reaction mixture was incubated at 37° C. on a shaker, and additional aliquots were taken at 7, 15, 30 and 60 minutes. Following quench and centrifugation, samples were analyzed on HPLC/MS/MS.

[4] = Metabolic Stability assay, rat liver microsomes; type: in vitro ADME
Method in brief: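 Test article at 1 μM starting concentration incubated with human or rat liver microsomes at 37 °C, with the reaction started by NADPH regeneration components. Aliquots were quenched in cold acetonitrile/MeOH/H2O at 0, 7, 15, 30 and 60 min and analysed by HPLC/MS/MS.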

rat (r) TRPV3 = rat (r) TRPV3 (Rattus norvegicus, UniProt E9PU00); test: Whole-cell patch clamp, rTRPV3 Phase 1 / Phase 2 currents; type: cell-based
Chain of rat (r) TRPV3 (E9PU00 1-791): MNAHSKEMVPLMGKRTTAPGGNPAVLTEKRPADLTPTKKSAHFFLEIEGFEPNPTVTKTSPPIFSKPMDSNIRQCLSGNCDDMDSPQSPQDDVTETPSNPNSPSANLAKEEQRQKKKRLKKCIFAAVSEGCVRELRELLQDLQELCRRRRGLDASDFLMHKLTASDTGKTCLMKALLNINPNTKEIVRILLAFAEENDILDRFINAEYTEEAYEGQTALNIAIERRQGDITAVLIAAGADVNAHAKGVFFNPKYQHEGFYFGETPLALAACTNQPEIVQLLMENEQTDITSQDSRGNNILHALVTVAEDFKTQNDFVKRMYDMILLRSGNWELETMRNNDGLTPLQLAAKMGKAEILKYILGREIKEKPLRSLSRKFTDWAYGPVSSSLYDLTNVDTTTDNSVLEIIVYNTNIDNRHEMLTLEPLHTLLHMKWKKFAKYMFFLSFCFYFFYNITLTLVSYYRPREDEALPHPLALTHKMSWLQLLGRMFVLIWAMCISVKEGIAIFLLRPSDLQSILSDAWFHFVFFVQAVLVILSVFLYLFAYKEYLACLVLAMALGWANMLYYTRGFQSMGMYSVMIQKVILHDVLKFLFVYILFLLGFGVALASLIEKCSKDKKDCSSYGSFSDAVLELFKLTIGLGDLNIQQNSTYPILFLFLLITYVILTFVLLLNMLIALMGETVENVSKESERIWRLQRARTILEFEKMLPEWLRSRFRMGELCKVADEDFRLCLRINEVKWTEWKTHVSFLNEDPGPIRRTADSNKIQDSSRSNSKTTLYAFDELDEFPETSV
From the text: Whole-cell patch clamp experiments permit the detection of currents through the TRPV3 channel in the cell line described above. A glass electrode is brought into contact with a single cell and the membrane is then ruptured, permitting control of the voltage of the cell membrane and measurement of currents flowing across the membrane using the amplifier attached to the electrode. A perfusion system permits control of the extracellular solution, including the addition of blockers and activators of the current. The current can be activated by heating this solution to 28° C. or warmer or by addition of 20 μM 2-APB to the solution.
TRPV3 cells were induced 20-48 hours, removed from growth plates, and replated at low density (to attain good single-cell physical separation) on glass coverslips for measurement. In some cases, cells were grown in low density overnight on glass coverslips. Patch clamp recordings were made in the whole-cell mode with a holding potential of −40 mV. Every 5 seconds, a voltage ramp was applied from −120 to +100 mV, 400 ms in duration. Currents elicited were quantified at −80 mV and +80 mV. The internal solution consisted of 140 mM cesium aspartate, 10 mM EGTA, 2.27 mM MgCl2, 1.91 mM CaCl2) and 10 mM HEPES, pH to 7.2 with KOH; with 50 nM calculated free […]. External solution was Ringer's solution described above. Upon addition of 2-APB or upon heating of the extraceullar solution as described above, TRPV3 current was induced only in TRPV3-expressing cells and not in parental HEK293 TREx cells. […] Removal of the stimulus caused most of the current to go away, and inhibitor addition could still inhibit this current.
In Tables 3 and 4, Phase 1 refers to Phase 1 current for human (h) TRPV3 or rat (r) TRPV3, and Phase 2 refers to Phase 2 current for human (h) TRPV3 or rat (r) TRPV3. The hTRPV3 and rTRPV3 assays were performed as described herein. hERG refers to the inhibition the human ERG (hERG) channel. NaV1.5, refers to the pore forming aL-subunit of the voltage-dependent cardiac Na(+) channel and is an integral membrane protein involved in the initiation and conduction of action potentials. hTRPV3 HAMA IC50 refers to the IC50 of TRPV3 cells stably expressed in TRex-293 cells. Solubility Ringer refers to the compounds' solubility in Ringer's solution. LM T1/2 refers to liver microsome half-lives in either rat or human liver microsomes. FLIPR IC50 refers to the IC50 of the test compounds against recombinant hTRPV3 cells.

hTRPV3 [5] = target: T1, hTRPV3; test: hTRPV3 HAMA IC50 assay (Hamamatsu FDSS6000 calcium flux, TRex-293 cells); conditions: 5 min
Experimental: IC50s were calculated using CBIS from ChemInnovation (San Diego).

[6] = Phase 1 current, human TRPV3, read-out: hTRPV3 (nM) Phase 1
[7] = Phase 1 current, read-out: hTRPV3 Patch P1 Inwd
[8] = Phase 1 current, read-out: hTRPV3 (nM) (Phase 1)
[9] = Phase 1 current, read-out: rTRPV3 (nM) (Phase 1)
[10] = Phase 2 current, read-out: rTRPV3 (nM) (Phase 2)

T1 sequence (Q8NET8 whole entry): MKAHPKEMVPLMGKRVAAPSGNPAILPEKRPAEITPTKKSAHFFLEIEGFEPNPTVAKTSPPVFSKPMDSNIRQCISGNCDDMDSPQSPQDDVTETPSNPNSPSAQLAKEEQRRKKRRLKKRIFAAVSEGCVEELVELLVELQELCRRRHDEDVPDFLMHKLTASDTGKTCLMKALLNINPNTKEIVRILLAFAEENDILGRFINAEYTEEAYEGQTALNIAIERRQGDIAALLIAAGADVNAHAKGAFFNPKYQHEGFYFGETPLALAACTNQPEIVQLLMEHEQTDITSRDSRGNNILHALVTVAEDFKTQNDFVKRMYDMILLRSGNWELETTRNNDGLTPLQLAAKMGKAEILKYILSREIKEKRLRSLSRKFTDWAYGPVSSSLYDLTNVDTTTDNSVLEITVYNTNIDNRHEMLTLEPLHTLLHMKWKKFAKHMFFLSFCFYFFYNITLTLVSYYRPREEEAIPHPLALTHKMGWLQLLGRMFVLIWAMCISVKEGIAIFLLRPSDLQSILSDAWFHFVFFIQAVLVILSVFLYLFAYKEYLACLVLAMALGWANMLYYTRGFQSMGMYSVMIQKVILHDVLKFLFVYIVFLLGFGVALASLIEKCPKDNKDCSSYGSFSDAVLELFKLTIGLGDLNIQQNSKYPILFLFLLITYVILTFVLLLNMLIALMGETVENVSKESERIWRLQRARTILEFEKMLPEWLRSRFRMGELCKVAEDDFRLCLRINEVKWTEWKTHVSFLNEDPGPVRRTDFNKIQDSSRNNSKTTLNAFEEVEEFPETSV

| Structure (SMILES) | IC50 (hTRPV3 [1]; [6]) [nM] | pIC50 (hTRPV3 [1]; [7]) | IC50 (human hERG channels; (PL), read-out: hERG (nM) (PL)) | solubility at 40 min [2] [µM] | half-life at 1 μM [3] [min] | half-life at 1 μM ([4]; read-out: LM T1/2 (min) rat) [min] | IC50 (hTRPV3 [1]; [8]) [nM] | pIC50 (hTRPV3 [1]; Phase 2 current, read-out: hTRPV3 Patch P2 Inwd) | IC50 (hTRPV3 [1]; Phase 2 current, read-out: hTRPV3 (nM) (Phase 2)) | IC50 (rat (r) TRPV3; [9]) [nM] | IC50 (rat (r) TRPV3; [10]) [nM] | Solubility Ringer (nM) ([2]; room temperature) | half-life at 1 μM ([4]; read-out: LM T1/2 (min) (rat)) | hTRPV3 HAMA IC50 (nM) (5 min) (hTRPV3 [5]) | IC50 (human hERG channels; (M), read-out: hERG) [nM] |
| --- | --- | --- | --- | --- | --- | --- | --- | --- | --- | --- | --- | --- | --- | --- | --- |
| CC(C)c1ccccc1-c1ccc(C2CCN(C(=O)c3cc(Cl)ccn3)C2)c(CO)c1 (centres unmarked) [Compound 2-49, (4-chloropyridin-2-yl)(3-(3-(hydroxymethyl)-2′-isopropylbiphenyl-4-yl)pyrrolidin-1-yl)methanone] | 25.7 | 7.00 to 8.00 | 6970 | > 12.8 | 12.2 | 20.6 |  |  |  |  |  |  |  |  |  |
| NC(=O)c1cc(-c2ccc(F)cc2)ccc1N1CC[C@H](Oc2ccc(C(F)(F)F)cn2)C1 [Compound 1-65, (S)-4′-fluoro-4-(3-(5-(trifluoromethyl)pyridin-2-yloxy)pyrrolidin-1-yl)biphenyl-3-carboxamide] |  | 6.00 to 7.00 |  |  |  |  | 475 | 6.00 to 7.00 | 417 | 1140 | 3250 | BLQ | 77.3 | no fit (5 min) |  |
| CCc1ccccc1-c1ccc(C2CCN(C(=O)c3ncccc3Cl)C2)c(CO)c1 (centres unmarked) [Compound 2-52, (3-chloropyridin-2-yl)(3-(2′-ethyl-3-(hydroxymethyl)biphenyl-4-yl)pyrrolidin-1-yl) methanone] | 67.3 | 7.00 to 8.00 |  | > 17.8 | 14.4 | 9.2 |  |  |  |  |  |  |  |  |  |
| O=C(c1ccc(C(F)(F)F)cn1)N1CCC(c2ccc(-c3ccccc3C3CC3)cc2CO)C1 (centres unmarked) [Compound 2-58, (3-(2′-cyclopropyl-3-(hydroxymethyl)biphenyl-4-yl)pyrrolidin-1-yl)(5-(trifluoromethyl)pyridin-2-yl)methanone] | 27.3 | 7.00 to 8.00 | 15000 | ~5.2 (≈ 2.43 µg/mL) | 54.6 | 47.9 |  |  |  |  |  |  |  |  |  |
| O=C(c1ccc(Cl)cn1)N1CCC(c2ccc(-c3ccccc3C3CC3)cc2CO)C1 (centres unmarked) [Compound 2-56] | 2.04 | > 8.00 | 7290 | ~5.1 (≈ 2.21 µg/mL) | 24.6 |  |  |  |  |  |  |  |  |  |  |
| O=C(c1ccc(F)cn1)N1CCC(c2ccc(-c3ccccc3C3CC3)cc2CO)C1 (centres unmarked) [Compound 2-72, (3-(2′-cyclopropyl-3-(hydroxymethyl)biphenyl-4-yl)pyrrolidin-1-yl)(5-fluoropyridin-2-yl)methanone] |  |  | 8460 | ~25.5 (≈ 10.6 µg/mL) | 17.5 | 31.3 |  |  |  |  |  |  |  |  | 9240 |
| NC(=O)c1cc(-c2ccccc2)ccc1N1CC[C@@H](Oc2ccc(C(F)(F)F)cn2)C1 [Compound 1-33, (R)-4-(3-(5-(trifluoromethyl)pyridin-2-yloxy)pyrrolidin-1-yl)biphenyl-3-carboxamide] |  | 6.00 to 7.00 |  |  |  |  | 139 |  |  | 283 | 776 |  |  | no fit (5 min) |  |
